Consider twelve compounds from patent publication US5244602A, “Photochromic naphthopyrans” (PPG Industries, Inc., priority 1990, dated 1993).

Common to all, as to assay type: physicochemical
Series [1] can be described thus: Coloring and bleaching behaviour. The settings on record: for bleaching: room temperature.
Series [2] in a line: Absorption maximum of naphthopyran imbibed into polymerizate. To be noted: imbibed in poly[diethylene glycol bis(allyl carbonate)]; UV 365 nm lamp. The source says:
(§1) The naphthopyran compounds of Examples 1-11 were imbibed into separate polymerizates of poly[diethylene glycol bis(allyl carbonate)]. On exposure to ultraviolet light from a 365 nm lamp, the imbibed polymer samples elicited a photochromic response which faded on removal of the UV light source.

The nature of series [3]: Fade rate (T 1/2) of naphthopyran imbibed into polymerizate after UV activation. The settings on record: At Room Temperature; imbibed in poly[diethylene glycol bis(allyl carbonate)]; UV 365 nm lamp.
Excerpt: as §1
^1. At Room Temperature

In the case of `C1=CC(c2ccccc2)(c2ccccc2)Oc2c1ccc1ccccc21` [2,2-diphenyl-2H-naphtho[1,2-b] pyrin], in series [1], the “color change on exposure to near ultraviolet” value is “colors on exposure to near ultraviolet light at room temperature” and the bleaching entry is recorded as “does not bleach in a reasonable period of time”.

For `C1=CC(c2ccccc2)(c2ccccc2)Oc2ccc3ccccc3c21` [3,3-diphenyl-3H-naphtho[2,1-b]pyran], in series [1], the “color change on exposure to near ultraviolet” value is on record as “change color on exposure to the near ultraviolet” and the bleaching entry is “bleaches too rapidly for use in an ophthalmic lens”.

With `CC(=O)Oc1cc2ccccc2c2c1OC(c1ccccc1)(c1ccccc1)C=C2` [Example 1, 5-acetoxy-3,3-diphenyl-3H-naphtho[2,1-b]pyran], the “Absorption λ Max” value in series [2] is 455 NM. Moreover, in series [3], the “Fade Rate T 1/2” value amounted to 1.35 min.

Consider `C1=CC(c2ccccc2)(c2ccccc2)Oc2c(Oc3ccccn3)cc3ccccc3c21` [Example 2, 5(2-pyridyloxy)-3,3-diphenyl-3H naphtho[2,1-b]pyran], for which the “Absorption λ Max” value in series [2] came out at 440 NM. Further, the “Fade Rate T 1/2” value in series [3] amounted to 1.57 min.

On to `COc1ccc(C2(c3ccccc3)C=Cc3c(c(OC(C)=O)cc4ccccc34)O2)cc1` (stereo not drawn) [Example 3, 5-acetoxy-3-phenyl-3-p-methoxy phenyl-3H-naphtho[2,1-b]pyran], for which the “Absorption λ Max” value in series [2] was determined as 483 NM. The “Fade Rate T 1/2” value in series [3] came to 1.05 min.

For `COc1ccc(C2(c3ccccc3)C=Cc3c(c(OC(=O)c4ccccc4)cc4ccccc34)O2)cc1` (stereo not drawn) [Example 4, 5-benzoyloxy-3-phenyl-3-p-methoxy phenyl-3H-naphtho[2,1-b]pyran], in series [2], the “Absorption λ Max” value came out at 483 NM. The “Fade Rate T 1/2” value in series [3] is 3.5 min.

On to `O=C(Oc1cc2ccccc2c2c1OC(c1ccccc1)(c1ccccc1)C=C2)c1ccccc1` [Example 5, 5-benzoyloxy-3,3-diphenyl-3H-naphtho[2,1-b]pyran], for which, in series [2], the “Absorption λ Max” value amounted to 447 NM. Besides, the “Fade Rate T 1/2” value in series [3] stood at 2.3 min.

As to `CNC(=O)Oc1cc2ccccc2c2c1OC(c1ccccc1)(c1ccccc1)C=C2` [Example 6, 5-methylcarbamyloxy-3,3-diphenyl-3H-naphtho[2,1-b]pyran], the “Absorption λ Max” value in series [2] was determined as 446 NM. For the same compound, the “Fade Rate T 1/2” value in series [3] was 1.67 min.

On to `CC(=O)COc1cc2ccccc2c2c1OC(c1ccccc1)(c1ccccc1)C=C2` [Example 8, 5-(2-acetonyloxy)-3,3-diphenyl-3H-naphtho[2,1-b]pyran], for which, in series [2], the “Absorption λ Max” value is reported as 434 NM. For the same compound, the “Fade Rate T 1/2” value in series [3] amounted to 1.6 min.

Take `CC(=O)Oc1cc2ccccc2c2c1OC(c1ccc(C)cc1)(c1ccc(C)cc1)C=C2` [Example 9, 5-acetoxy-3,3-di(p-methylphenyl)-3H-naphtho[2,1-b]pyran]: in series [2], the “Absorption λ Max” value came out at 470 NM. Also, the “Fade Rate T 1/2” value in series [3] amounted to 2.23 min.

`O=C(CCl)Oc1cc2ccccc2c2c1OC(c1ccccc1)(c1ccccc1)C=C2` [Example 10, 5-chloroacetoxy-3,3-diphenyl-3H-naphtho[2,1-b]pyran]: in series [2], the “Absorption λ Max” value was found to be 458 NM. Also, in series [3], the “Fade Rate T 1/2” value is 1.6 min.

For the compound `Cc1ccc(C2(c3ccc(C)cc3)C=Cc3c(c(OC(=O)CCl)cc4ccccc34)O2)cc1` [Example 11, 5-chloroacetoxy-3,3-p-methylphenyl-3H-naphtho[2,1-b]pyran], in series [2], the “Absorption λ Max” value came out at 476 NM. Further, in series [3], the “Fade Rate T 1/2” value was determined as 1.75 min.
